Source: patent US5652222A, “Selective inhibition of leukemic cell proliferation by bcr-abl antisense oligonucleotides” (Temple University-of The Commonwealth System of Higher …, priority 1993, dated 1997)

Legend:
[1] = system: 1:1 mix of normal MNC and CML blast crisis cells; assay: Morphology (Giemsa staining) of cells from residual colonies; format: cell-based, human
Text: (§1) Normal bone marrow mononuclear cells (MNC) were obtained by aspiration from consenting volunteers and enriched for hematopoietic progenitors as previously reported by numerous investigators (Zamecnick et al., Proc. Natl. Acad. Sci. U.S.A. 83, 4143-4147 (1986); Caracciolo et al., J. Clin. Invest. 85, 55-61 (1990)). In brief, marrow cells were subjected to Ficoll-Hypaque density gradient sedimentation and then depleted of adherent monocyte-macrophage and T-lymphocytes by adherence to plastic Petri dishes and rosetting with neuraminidase-treated sheep red blood cells, respectively. Philadelphia chromosome-positive blast cells were isolated by Ficoll-Hypaque density gradient sedimentation from a CML patient in blast crisis (L-6 type junction). […] The residual non-blast cells had the morphological appearance of small lymphocytes. 25,000 MNC and 25,000 CML blast cells were combined and incubated with bcr-abl breakpoint-Specific antisense oligomer (SEQ ID NO:3) (40 μg/ml at h 0; 20 μg/ml 18 hours later) or with a 4 nucleotide mismatch bcr-abl antisense oligomer (SEQ ID NO:2) (40 μg/ml at 0 h; 20 μg/ml 18 hours later) or left untreated. […] At the end of the incubation period colonies were counted. […]

[2] = system: 1:1 mixtures of normal marrow progenitors and CML blast crisis cells; assay: CFU-GM + CFU-L colony formation of 1:1 mixtures of normal marrow progenitors and CML blast crisis cells; format: cell-based, human; conditions: Table 3; 1:1 mixture; 40 μg/ml at 0 h, 20 μg/ml 18 h later; 12 days; mean ± SD; control 978 ± 24
Text: as §1

[3] = system: Philadelphia chromosome-positive blast cells of CML patients in blast crisis, L-6 (b2a2) type junction; assay: Colony formation of CML blast crisis patient cells expressing the b2a2 (L-6) junction; format: cell-based, human
[4] = system: β2-microglobulin transcript; assay: β2-microglobulin transcript in residual colonies (RT-PCR control); format: cell-based, human; conditions: antisense-treated colonies
Method: To provide unambiguous evidence of the elimination of Philadelphia chromosome blast cells, residual cells from Example 3 were evaluated for the expression of bcr-abl transcripts, since the levels of this transcript should reflect the number of surviving leukemia cells. For this purpose, total RNA was isolated from a pool of colonies from Example 3, and the levels of bcr-abl transcripts were evaluated. Levels of β2 -microglobulin transcript were also determined as a control. The β2 -microglobulin gene is expressed independent of cell cycle.
Accordingly, bcr-abl and β2 -microglobulin transcripts were reverse-transcribed and amplified in the presence of specific primers and Taq polymerase as described by Rappollee, Science 241, 708-712 (1988). The amplification products were separated on a 2% agarose gel and transferred to a nitrocellulose filter, which was hybridized with a synthetic 40-nucleotide c-abl fragment and a 40-nucleotide β2 -microglobulin fragment and labeled with [γ-^32 P]-ATP and polynucleotide kinase. The c-abl probe recognizes the amplified 257-nucleotide sequence of FIG. 1, which contains the L-6 type bcr-abl junction. The β2 -microglobulin probe recognizes the 195-nucleotide sequence contained within 5' and 3' β2 -microglobulin primers (Id.; Suggs et al., Proc. Natl. Acad. Sci. U.S.A. 78, 6613 (1981)).

[5] = system: BV173 cells (cALL antigen (CALLA)-positive cells); assay: Immunofluorescence / flow cytometry of CALLA-positive cells in tissues of leukemic SCID mice; format: in vivo, SCID mice (human leukemic cells)
Method: A first assay comprised an immunofluorescence analysis of cALL antigen (CALLA)-positive cells. All BV173 cells but not normal murine hematopoietic cells express this antigen (assay sensitivity=10^-2). Single cell suspensions were prepared for flow cytometry analysis from peripheral blood, spleen and bone marrow cells of the leukemic SCID mice by centrifugation on a lymphocyte-M gradient (Cedarlane Labs, Ltd., Ontario, Canada). Cells (1×10^5) were stained with the FITC-conjugated mouse anti-CALLA monoclonal antibody (Becton-Dickinson Immunocytometry Systems, San Jose, Calif.) to human CD10 antigen. After staining, cells were washed and analyzed by flow cytometry using the Epics Profile Analyzer (Coulter Electronic).
To determine whether synthetic phosphorothioate oligodeoxynucleotides targeted against the bcr-abl junction of […] cells would modify the disease process in SCID mice. SCID mice were injected with 10^6 BV173 cells. The mice then received 1 mg of sense (ATCAATAAGG AAGCCCTTCAGCG, SEQ ID NO:34) or antisense ([…] ATTGAT, SEQ ID NO:29) b2/a2 bcr-abl phosphorothioate oligodeoxynucleotides (pyrogen leven <1 Eu/mg; 0.2 ml in Iscove modified Dulbecco medium in 5-10 seconds) intravenously for each of 9 consecutive days, beginning either 7 or 21 days after introducing 10^6 BV173 cells. Control mice received the diluent (iscove's modified Dulbecco medium) only. These time points approximate distinct disease stages in humans.

[6] = 1 mg/day i.v. x9 from day +7, 26 days after last treatment (6 weeks)
[7] = from day +21, 1 mg/day x9, 26 days after treatment (8 weeks)

| Substance | morphology of cells isolated from residual colonies [1] | Colonies or Clusters, CFU-GM + CFU-L [2] | % Inhibition ([3]; Table 1, patient 1, number of colonies vs untreated) | Number of Colonies, Antisense-treated ([3]; Table 1, patient 3, 40 μg/ml at start, 20 μg/ml 18 h later, untreated 480 ± 88) | expression of β2-microglobulin [4] | CALLA+ cells, bone marrow ([5]; 1 mg/day i.v. x9 from day +7, 12 days after last treatment (4 weeks)) | CALLA+ cells, bone marrow [5, 6] | CALLA+ cells, peripheral blood [5, 6] | CALLA+ cells, spleen [5, 6] | CALLA+ cells, peripheral blood ([5]; from day +21, 1 mg/day x9, 12 days after last treatment (6 weeks), control 1.0±0.1) | CALLA+ cells, spleen ([5]; from day +21, 1 mg/day x9, 12 days after last treatment (6 weeks), control 1.9±0.1) | CALLA+ cells, bone marrow ([5]; from day +21, 1 mg/day x9, 12 days after last treatment (6 weeks), control 17.7±1.8) | CALLA+ cells, bone marrow [5, 7] | CALLA+ cells, peripheral blood [5, 7] | CALLA+ cells, spleen [5, 7] |
| --- | --- | --- | --- | --- | --- | --- | --- | --- | --- | --- | --- | --- | --- | --- | --- |
| SEQ ID NO:3: synthetic 18-mer GAAGGGCTTC TTCCTTAT specific for the 18-nucleotide target sequence of the L-6 bcr-abl junction (antisense GAAGGGCTTCTTCCTTAT; chemistry not given here) | largely consisted of differentiating elements | 450 ± 42 colonies or clusters | 75% | 50 ± 12 colonies | clearly detectable |  |  |  |  |  |  |  |  |  |  |
| SEQ ID NO:34: phosphorothioate sense sequence ATCAATAAGGAAGCCCTTCAGCG (23-mer b2a2 sense) (sense ATCAATAAGGAAGCCCTTCAGCG; all phosphorothioate, sugars by position and methylation of C not given here) |  |  |  |  |  | detected in bone marrow of control and sense-treated animal | 16.8±1.8% | 1.9±0.2% | 4.1±0.2% | 0.9±0.1 | 1.9±0.8% | 10.0±0.5% | 23.9±5.0% | 2.0±0.3% | 9.9±1.8% |
